Results reported in patent publication US20220175768A1, “FGFR TYROSINE KINASE INHIBITORS FOR THE TREATMENT OF UROTHELIAL CARCINOMA” (Janssen Pharmaceutica NV, priority 2019, published 2022).

Tests used:
[1] = study in which nine of 10 patients had disease progression with prior immunotherapy; cited from earlier work
[2] = system: urothelial cancer; experiment: Best response to prior therapy before study enrolment per investigator assessment; format: in vivo, human; conditions: first-line, across all regimens
From the text: Across all regimens, 184 patients had received first-line platinum-based chemotherapy, 83 had received second-line chemotherapy, and 24 had received third-line chemotherapy before study enrolment.

| Compound | Patients who responded to rogaratinib [1] [%] | Best ORR per investigator assessment to prior chemotherapy [2] [%] |
| --- | --- | --- |
| COCc1c(-c2cc3cc(C)cc(OC)c3s2)c2c(N)ncnn2c1CN1CCNC(=O)C1 [rogaratinib] | 30 |  |
| gemcitabine plus cisplatin |  | 35 |
